This is an account of results in patent publication US12435068B2, “Anthelmintic compounds” (Elanco Animal Health GmBh, priority 2018, dated 2025).

By EC50 is commonly meant the concentration that produces a half-maximal response.

In assay [1] the test system is Dirofilaria immitis microfilariae. Briefly: In Vitro Assay 2: Dirofilaria immitis microfilariae (DIROIM L1) motility. In kind it is cell-based. The conditions noted are these: 72 h, read-out: EC50 ppm.
The subject of assay [2] is Dirofilaria immitis larvae. Briefly: In Vitro Assay 3: Dirofilaria immitis (DIROIM L4) larval motility. Format: cell-based. The conditions noted are these: 72 h, read-out: EC50 ppm.
The next assay addresses C. elegans Slo-1a (Caenorhabditis elegans, UniProt Q95V25).

Molecules are shown by their SMILES. Converted amounts (≈) assume the structure as drawn. Some results are limits rather than exact numbers.

Sequence of C. elegans Slo-1a (Q95V25 whole entry): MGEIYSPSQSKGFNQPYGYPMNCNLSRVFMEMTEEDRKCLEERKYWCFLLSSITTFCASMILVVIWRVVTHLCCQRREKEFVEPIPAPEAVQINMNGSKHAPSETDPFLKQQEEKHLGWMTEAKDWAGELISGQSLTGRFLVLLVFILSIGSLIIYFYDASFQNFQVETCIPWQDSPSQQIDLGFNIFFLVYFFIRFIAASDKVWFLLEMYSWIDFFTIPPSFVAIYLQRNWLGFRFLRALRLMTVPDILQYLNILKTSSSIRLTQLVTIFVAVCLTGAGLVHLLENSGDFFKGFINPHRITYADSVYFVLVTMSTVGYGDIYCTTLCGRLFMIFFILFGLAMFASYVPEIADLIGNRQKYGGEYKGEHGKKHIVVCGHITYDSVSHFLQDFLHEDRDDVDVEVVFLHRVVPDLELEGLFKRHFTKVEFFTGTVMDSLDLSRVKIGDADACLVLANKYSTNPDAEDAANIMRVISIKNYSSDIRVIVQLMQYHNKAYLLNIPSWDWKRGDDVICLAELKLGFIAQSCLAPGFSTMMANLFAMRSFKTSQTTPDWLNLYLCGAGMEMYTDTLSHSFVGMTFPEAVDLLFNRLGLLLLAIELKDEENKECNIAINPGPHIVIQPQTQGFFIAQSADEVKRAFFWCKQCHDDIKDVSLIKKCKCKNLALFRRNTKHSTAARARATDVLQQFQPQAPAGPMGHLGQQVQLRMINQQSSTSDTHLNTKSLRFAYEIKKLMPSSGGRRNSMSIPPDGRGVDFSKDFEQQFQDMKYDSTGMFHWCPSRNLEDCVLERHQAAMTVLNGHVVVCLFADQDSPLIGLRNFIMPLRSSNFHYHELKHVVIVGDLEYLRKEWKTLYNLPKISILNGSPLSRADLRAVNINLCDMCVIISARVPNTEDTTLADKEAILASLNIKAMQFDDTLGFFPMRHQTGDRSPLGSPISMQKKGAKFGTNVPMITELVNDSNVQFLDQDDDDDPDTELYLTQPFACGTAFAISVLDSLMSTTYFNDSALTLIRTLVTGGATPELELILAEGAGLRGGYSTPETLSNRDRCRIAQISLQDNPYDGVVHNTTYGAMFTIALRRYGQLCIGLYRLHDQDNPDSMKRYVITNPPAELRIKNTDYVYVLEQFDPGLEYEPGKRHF
Description for C. elegans Slo-1a: Cells were cultured at 37° C. and 5% CO2 in MEMalpha with Gutamax I (Invitrogen, Nr.: 32571), supplemented with 10% (v/v) heat inactivated fetal bovine serum (Invitrogen, Nr.: 10500), G418 (1 mg/ml, Invitrogen, Nr.: 10131). Cells were detached using Accutase (Sigma, Nr.: A6964).
Membrane Potential Measurements
Laboratory compound testing was performed on 384-well microtiter plates (MTPs, Greiner, Nr.: 781092). 8000 cells/well were plated onto 384-well MTPs and cultured for 20 to 24 hours at 37° C. and 5% CO2. After removal of the cell culture medium, the cells were washed once with tyrode (150 mM NaCl, 0.3 mM KCl, 2 mM CaCl2, 1 mM MgCl2, 0.8 mM NaH2PO4, 5 mM Glucose, 28 mM Hepes, pH 7.4) and then loaded with the voltage sensitive dye of the Membrane Potential Assay Kit diluted in tyrode for 1 h at room temperature.
After starting the measurement of fluorescence using a FLIPR Tetra (Molecular Devices, Exc. 510-545 nm, Emm. 565-625 nm), test compounds were added followed by the addition of KCl tyrode (final assay concentration: 70 mM KCl, 2 mM CaCl2, 1 mM MgCl2, 0.8 mM NaH2PO4, 5 mM Glucose, 28 mM Hepes, pH 7.4, including the voltage sensitive dye). The measurement was completed after 7 minutes.

Turning to `CC(C)c1c(C(=O)N[C@H]2CCOc3ccccc32)sc2c(-c3cccc(Cl)c3)cccc12` [Example Compound S1-2, 7-(3-Chlorophenyl)-N-[(4S)-3,4-dihydro-2H-chromen-4-yl]-3-isopropyl-1-benzothiophene-2-carboxamide], the concentration giving a half-maximal response (EC50) in assay [1] is 0.03 µg/mL (≈ 0.0649 µM); in assay [2], > 0.08 µg/mL; on C. elegans Slo-1a, 3.98 nM.

For `CC(C)c1c(C(=O)N[C@H]2CCOc3ccccc32)sc2c(-c3cccc(Cl)c3Cl)cccc12` [Example Compound S1-3, 7-(2,3-Dichlorophenyl)-N-[(4S)-3,4-dihydro-2H-chromen-4-yl]-3-isopropyl-1-benzothiophene-2-carboxamide], the figures for the EC50 (in assay [1]; in assay [2]; on C. elegans Slo-1a) were 0.01 µg/mL (≈ 0.0201 µM), 0.03 µg/mL (≈ 0.0604 µM) and 0.631 nM, respectively.

Turning to `COc1c(C(=O)N[C@H]2CCOc3ccccc32)sc2c(-c3cccc(Cl)c3Cl)cccc12` [Example Compound S1-11, 7-(2,3-Dichlorophenyl)-N-[(4S)-3,4-dihydro-2H-chromen-4-yl]-3-methoxy-1-benzothiophene-2-carboxamide], the EC50 in assay [1] was 0.04 µg/mL (≈ 0.0826 µM); in assay [2], > 0.08 µg/mL; at C. elegans Slo-1a it was 31.6 nM.

As for `CC(C)n1c(C(=O)N[C@H]2CCOc3ccccc32)cc2c(-c3cc(F)cc(F)c3F)cccc21` [Example Compound S2-6, N-[(4S)-3,4-Dihydro-2H-chromen-4-yl]-1-(propan-2-yl)-4-(2,3,5-trifluorophenyl)-1H-indole-2-carboxamide], the EC50 is 0.0086 µg/mL (≈ 0.0185 µM) in assay [1], 0.08 µg/mL (≈ 0.172 µM) in assay [2] and 15.8 nM at C. elegans Slo-1a.

For the compound `CC(C)c1c(C(=O)N[C@H]2CCc3ccccc32)ccc2c1nnn2-c1ccc(Cl)cc1` [Example Compound S4-6, 1-(4-Chlorophenyl)-N-[(1S)-2,3-dihydro-1H-inden-1-yl]-4-(propan-2-yl)-1H-benzotriazole-5-carboxamide], the concentration for a half-maximal effect (EC50) was > 2 µg/mL in assay [1] and 251 nM at C. elegans Slo-1a.

As for `CC(C)c1c(C(=O)N[C@H]2CCc3ccccc32)ccc2c1nnn2-c1ccccc1` [Example Compound S4-7, N-[(1S)-2,3-Dihydro-1H-inden-1-yl]-1-phenyl-4-(propan-2-yl)-1H-benzotriazole-5-carboxamide], the concentration for a half-maximal effect (EC50) in assay [1] is > 2 µg/mL; on C. elegans Slo-1a, 2000 nM.

As to `CC(C)c1c(C(=O)N[C@H]2CCc3ccccc32)ccc2c1nnn2-c1cccc(Cl)c1` [Example Compound S4-8, 1-(3-Chlorophenyl)-N-[(1S)-2,3-dihydro-1H-inden-1-yl]-4-(propan-2-yl)-1H-benzotriazole-5-carboxamide], the values for the EC50 (in assay [1]; at C. elegans Slo-1a) were > 2 µg/mL and 10000 nM, respectively.

Turning to `CC(C)c1c(C(=O)N[C@H]2CCc3ccccc32)ccc2c1nnn2-c1cccc(C(F)(F)F)c1` [Example Compound S4-9, N-[(1S)-2,3-Dihydro-1H-inden-1-yl]-4-(propan-2-yl)-1-[3-(trifluoromethyl)phenyl]-1H-benzotriazole-5-carboxamide], the half-maximal effective concentration (EC50) in assay [1] was > 2 µg/mL; on C. elegans Slo-1a it was 1580 nM.

In the case of `CC(C)c1c(C(=O)N[C@H]2CCc3ccccc32)ccc2c1nnn2-c1ccccc1Cl` [Example Compound S4-10, 1-(2-Chlorophenyl)-N-[(1S)-2,3-dihydro-1H-inden-1-yl]-4-(propan-2-yl)-1H-benzotriazole-5-carboxamide], the EC50 in assay [1] was > 2 µg/mL; at C. elegans Slo-1a, 3160 nM.

As to `CN(C)c1c(C(=O)N[C@H]2CCOc3ccccc32)cnc2c1n(C)c(=O)n2-c1cc(Cl)cc(Cl)c1` [Example Compound S5-1, 3-(3,5-Dichlorophenyl)-N-[(4S)-3,4-dihydro-2H-chromen-4-yl]-7-(dimethylamino)-1-methyl-2-oxo-2,3-dihydro-1H-imidazo[4,5-b]pyridine-6-carboxamide], the concentration giving a half-maximal response (EC50) in assay [1] was 0.38 µg/mL (≈ 0.742 µM); on C. elegans Slo-1a it was 100 nM.

As to `O=C(N[C@H]1CCOc2ccccc21)c1ccc2c(-c3cccc(Cl)c3Cl)cccc2c1` [Example Compound S6-1, 5-(2,3-Dichlorophenyl)-N-[(4S)-3,4-dihydro-2H-chromen-4-yl]naphthalene-2-carboxamide], the concentration for a half-maximal effect (EC50) in assay [1] is 0.63 µg/mL (≈ 1.41 µM); at C. elegans Slo-1a, 79.4 nM.

In the case of `O=C(N[C@H]1CCOc2ccccc21)c1ccc2c(-c3cccc(Cl)c3Cl)nccc2c1` [Example Compound S6-2, 1-(2,3-Dichlorophenyl)-N-[(4S)-3,4-dihydro-2H-chromen-4-yl]isoquinoline-6-carboxamide], the figures for the concentration giving a half-maximal response (EC50) (in assay [1]; at C. elegans Slo-1a) were > 2 µg/mL and 794 nM, respectively.

`O=C(N[C@H]1CCOc2ccccc21)c1cnc2c(ccc(=O)n2-c2cc(Cl)cc(Cl)c2)c1` [Example Compound S7-1, 8-(3,5-Dichlorophenyl)-N-[(4S)-3,4-dihydro-2H-chromen-4-yl]-7-oxo-7,8-dihydro-1,8-naphthyridine-3-carboxamide]: the EC50 in assay [1] is 1.95 µg/mL (≈ 4.18 µM); at C. elegans Slo-1a, 200 nM.

As for `CN(C)c1c(C(=O)N[C@H]2CCOc3ccccc32)ncc2c1ccc(=O)n2Cc1ccc(Cl)cc1` [Example Compound S7-2, 1-(4-Chlorobenzyl)-N-[(4S)-3,4-dihydro-2H-chromen-4-yl]-5-(dimethylamino)-2-oxo-1,2-dihydro 1,7-naphthyridine-6-carboxamide], the EC50 in assay [1] is > 2 µg/mL; on C. elegans Slo-1a it was 1000 nM.

As for `CC(C)C1=C(C(=O)N[C@H]2CCOc3ccccc32)COc2c1cccc2-c1cc(Cl)cc(Cl)c1` [Example Compound S8a-1, 8-(3,5-Dichlorophenyl)-N-[(4S)-3,4-dihydro-2H-chromen-4-yl]-4-(propan-2-yl)-2H-chromene-3-carboxamide], the EC50 is < 0.0032 µg/mL in assay [1], 0.04 µg/mL (≈ 0.0809 µM) in assay [2] and 3.16 nM on C. elegans Slo-1a.

As to `CC(C)c1c(C(=O)N[C@H]2CCOc3ccccc32)c(=O)oc2c(-c3cc(Cl)cc(Cl)c3)cccc12` [Example Compound S8a-2, 8-(3,5-Dichlorophenyl)-N-[(4S)-3,4-dihydro-2H-chromen-4-yl]-2-oxo-4-(propan-2-yl)-2H-chromene-3-carboxamide], the values for the concentration giving a half-maximal response (EC50) (in assay [1]; in assay [2]; on C. elegans Slo-1a) were < 0.0032 µg/mL, 0.18 µg/mL (≈ 0.354 µM) and 1.26 nM, respectively.

Turning to `O=C(N[C@H]1CCOc2ccccc21)c1cc2cccc(-c3cccc(Cl)c3Cl)c2oc1=O` [Example Compound S8a-3, 8-(2,3-Dichlorophenyl)-N-[(4S)-3,4-dihydro-2H-chromen-4-yl]-2-oxo-2H-chromene-3-carboxamide], the EC50 was 0.25 µg/mL (≈ 0.536 µM) in assay [1] and 50.1 nM at C. elegans Slo-1a.

For `O=C(N[C@H]1CCOc2ccccc21)C1=Cc2cccc(-c3cc(Cl)cc(Cl)c3)c2OC1` [Example Compound S8a-4, 8-(3,5-Dichlorophenyl)-N-[(4S)-3,4-dihydro-2H-chromen-4-yl]-2H-chromene-3-carboxamide], the EC50 in assay [1] is > 2 µg/mL; on C. elegans Slo-1a it was 20 nM.

As for `O=C(N[C@H]1CCOc2ccccc21)C1=Cc2cccc(-c3cccc(Cl)c3Cl)c2OC1` [Example Compound S8a-5, 8-(2,3-Dichlorophenyl)-N-[(4S)-3,4-dihydro-2H-chromen-4-yl]-2H-chromene-3-carboxamide], the concentration giving a half-maximal response (EC50) in assay [1] is 0.09 µg/mL (≈ 0.199 µM); in assay [2] it was 0.04 µg/mL (≈ 0.0884 µM); at C. elegans Slo-1a, 5.01 nM.

With `O=C(N[C@H]1CCOc2ccccc21)c1c(N2CCOCC2)c2cccc(-c3cc(Cl)cc(Cl)c3)c2[nH]c1=O` [Example Compound S8a-6, 8-(3,5-Dichlorophenyl)-N-[(4S)-3,4-dihydro-2H-chromen-4-yl]-4-(morpholin-4-yl)-2-oxo-1,2-dihydroquinoline-3-carboxamide], the results for the EC50 (in assay [1]; on C. elegans Slo-1a) were 0.64 µg/mL (≈ 1.16 µM) and 39.8 nM, respectively.

As to `CC1=C(C(=O)N[C@H]2CCc3ccccc32)C(C)c2cccc(-c3cc(Cl)cc(Cl)c3)c2O1` (stereo partly drawn) [Example Compound S8b-1, 8-(3,5-Dichlorophenyl)-N-[(1S)-2,3-dihydro-1H-inden-1-yl]-2,4-dimethyl-4H-chromene-3-carboxamide], the EC50 in assay [1] is 1.47 µg/mL (≈ 3.17 µM); in assay [2] it was > 0.4 µg/mL.

Take `O=C(N[C@H]1CCOc2ccccc21)c1ccc2nc(-c3cccc(C(F)(F)F)c3Cl)cnc2c1` [Example Compound S9-1, 2-[2-Chloro-3-(trifluoromethyl)phenyl]-N-[(4S)-3,4-dihydro-2H-chromen-4-yl]quinoxaline-6-carboxamide]: the figures for the EC50 (in assay [1]; at C. elegans Slo-1a) were 0.52 µg/mL (≈ 1.07 µM) and 20 nM, respectively.

In the case of `O=C(N[C@H]1CCOc2ccccc21)c1ccc2nc(-c3ccccc3Cl)cnc2c1` [Example Compound S9-2, 2-(2-Chlorophenyl)-N-[(4S)-3,4-dihydro-2H-chromen-4-yl]quinoxaline-6-carboxamide], the half-maximal effective concentration (EC50) is 1.95 µg/mL (≈ 4.69 µM) in assay [1] and 631 nM on C. elegans Slo-1a.

On to `O=C(N[C@H]1CCc2ccccc21)c1ccc2nc(-c3ccccc3Cl)cnc2c1` [Example Compound S9-3, 2-(2-Chlorophenyl)-N-[(1S)-2,3-dihydro-1H-inden-1-yl]quinoxaline-6-carboxamide], for which the EC50 in assay [1] was 0.61 µg/mL (≈ 1.53 µM); on C. elegans Slo-1a, 100 nM.

For `O=C(N[C@H]1CCOc2ccccc21)c1ccc2nc(-c3cccc(Cl)c3Cl)cnc2c1` [Example Compound S9-4, 2-(2,3-Dichlorophenyl)-N-[(4S)-3,4-dihydro-2H-chromen-4-yl]quinoxaline-6-carboxamide], the EC50 is 0.32 µg/mL (≈ 0.711 µM) in assay [1] and 20 nM on C. elegans Slo-1a.

With `O=C(N[C@H]1CCc2ccccc21)c1ccc2nc(-c3cccc(Cl)c3Cl)cnc2c1` [Example Compound S9-5, 2-(2,3-Dichlorophenyl)-N-[(1S)-2,3-dihydro-1H-inden-1-yl]quinoxaline-6-carboxamide], the EC50 in assay [1] is 0.37 µg/mL (≈ 0.852 µM); at C. elegans Slo-1a it was 31.6 nM.

Turning to `O=C(N[C@H]1CCc2ccccc21)c1ccc2nc(-c3cccc(C(F)(F)F)c3Cl)cnc2c1` [Example Compound S9-6, 2-[2-Chloro-3-(trifluoromethyl)phenyl]-N-[(1S)-2,3-dihydro-1H-inden-1-yl]quinoxaline-6-carboxamide], the EC50 is 0.44 µg/mL (≈ 0.94 µM) in assay [1] and 31.6 nM on C. elegans Slo-1a.
